{"source": "patent US9464077B2", "about": "“Nitrogen-containing aromatic heterocyclic compound” (Astellas Pharma Inc., priority 2012, dated 2016)", "key": {"human recombinant FGFR1": {"target": "human recombinant FGFR1 (Homo sapiens, UniProt P11362)", "sequence (P11362 22-822)": "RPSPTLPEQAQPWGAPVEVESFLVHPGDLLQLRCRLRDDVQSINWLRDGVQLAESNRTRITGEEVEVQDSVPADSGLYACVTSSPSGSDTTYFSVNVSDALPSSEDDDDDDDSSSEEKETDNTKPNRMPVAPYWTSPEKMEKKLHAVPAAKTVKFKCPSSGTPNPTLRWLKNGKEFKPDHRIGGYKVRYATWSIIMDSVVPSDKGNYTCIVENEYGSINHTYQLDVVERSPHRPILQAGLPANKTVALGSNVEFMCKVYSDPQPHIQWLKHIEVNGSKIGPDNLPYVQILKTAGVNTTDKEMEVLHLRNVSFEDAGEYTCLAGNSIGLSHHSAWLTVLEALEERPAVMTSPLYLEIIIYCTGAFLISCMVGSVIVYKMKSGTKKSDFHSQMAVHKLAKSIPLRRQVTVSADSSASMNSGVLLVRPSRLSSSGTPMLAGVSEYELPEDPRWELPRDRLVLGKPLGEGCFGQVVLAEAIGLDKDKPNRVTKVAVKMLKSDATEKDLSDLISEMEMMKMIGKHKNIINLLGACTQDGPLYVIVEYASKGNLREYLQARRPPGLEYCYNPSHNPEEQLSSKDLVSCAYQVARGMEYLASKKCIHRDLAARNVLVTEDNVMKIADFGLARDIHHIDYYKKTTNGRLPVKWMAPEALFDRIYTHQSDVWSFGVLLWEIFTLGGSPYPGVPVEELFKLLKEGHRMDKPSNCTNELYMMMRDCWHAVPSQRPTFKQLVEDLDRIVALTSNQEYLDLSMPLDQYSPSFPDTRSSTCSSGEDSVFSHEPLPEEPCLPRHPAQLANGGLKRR", "experiment": "FGFR1 enzyme assay (LabChip EZ Reader)", "method": "The compound was diluted with a solution of dimethyl sulfoxide (DMSO) (10-fold common ratio, 4 portions) before dilution with a reaction buffer (100 mM HEPES (pH7.5), 0.003% Brij-35, 0.004% Tween 20, 0.5 mM DTT, and 10 mM MgCl2) so that the final DMSO concentration was 2%. To 4 μL of the compound solution in a 384-well plate, 2 μL each of FGFR1 enzyme (2 or 3 ng/μL), FGFR2 enzyme (2 ng/μL), or FGFR3 enzyme (6 ng/μL) which were diluted with the reaction buffer was added. […] After the reaction was stopped, the reaction mixture was measured with a LabChip EZ Reader. The IC50 values were calculated by non-linear regression based on the inhibition rates obtained."}, "[1]": {"test_system": "bladder cancer patient-derived cell line RT-112", "experiment": "Anchorage-independent cell growth inhibition, spheroid plate", "assay_type": "cell-based", "conditions": "Homo sapiens, RT-112, 96 h, 4 days, read-out: growth inhibition rate RT-112"}}}
{"smiles": "COc1cc(OC)c(F)c(COc2cnc(Nc3ccc(N4CCC(NCCO)CC4)cc3)nc2)c1F", "note": "[Example 299]", "values": [{"measurement": "IC50", "setting": "human recombinant FGFR1", "result": "< 1", "unit": "nM"}, {"measurement": "inhibition at 0.001 µM", "setting": "[1]; 1 nM", "result": 31, "unit": "%"}, {"measurement": "inhibition at 0.01 µM", "setting": "[1]; 10 nM", "result": 84, "unit": "%"}, {"measurement": "inhibition at 0.1 µM", "setting": "[1]; 100 nM", "result": 89, "unit": "%"}]}
